Reference: patent US7250432B2, “Pharmaceutical compositions of diaryl-isoxazole derivatives for the prevention and treatment of cancers” (Korea Research Institute of Bioscience and Biotechnology, priority 2003, dated 2007)

Legend:
[1] = test system: breast cancer cell line (MDA-MB-231); assay: Analysis of cell migration (modified Boyden chamber); format: cell-based; conditions: for Cell migration inhibition rate / inhibition at 1 µM / inhibition at 10 µM: breast cancer cells, 18 hours; for inhibition at 1 µM / inhibition at 10 µM: read-out: Cell migration inhibition rate
Experimental: In order to investigate cell migration, modified Boyden chamber and 8 μm pore membrane were purchased from Neuro probe Co. and staining solution for cell staining, Giemsa solution, was purchased from Sigma Co. Other instruments used were CO2 incubator for cell culture, centrifuge for cell washing and inverted microscope (TE 300, Nikon, Japan) for observation.
Particularly, 90% grown up cells on a culture plate were isolated using trypsin/EDTA. The cells were treated with soybean trypsin inhibitor, and washed with serum free medium three times. Then, cell density was adjusted to 4×10^5 cells/ml. The compounds of Example 1-6 and a medium supplemented with 10% FBS were put by 30 μl each in a chamber well of the bottom of modified Boyden chamber, on which 8 μm pore membrane was put. Silicon gasket was placed over and finally a top plate was put on the gasket and fastened with a nut. The cultured cells were put in a well of top plate by 50 μl. The chamber was rapped and further cultured in a 37° C. 5% CO2 incubator for 18 hours.
18 hours later, the nut was taken out. Membrane was separated and fixed in methanol for 10 minutes, followed by drying in the air. After membrane was completely dried, it was stained in Giemsa solution for 90 minutes. At that time, the staining solution was diluted with distilled water at the ratio of 1:10 before use. Upon competing staining, the membrane was dipped in distilled water for about 10 seconds for washing. The membrane was put on a cover slip with a part having cells not shifted heading up and scrubbed with a cotton swab carefully. Manicure was put on the edge of the cover slip, which was then fixed well on a slide glass. The number of migrated cells on the sample prepared above was investigated under inverted microscope.
Cell migration inhibition rate (%)=100−[Number of migrated cells treated with test samples/Number of migrated cells of control]×100
For a control group, only 1% dimethyl sulfoxide […]) was added instead of a compound of the present invention.

HUVEC = assay: in vitro endothelial morphogenesis assay (tube formation); format: cell-based, human
Experimental: Angiogenesis inhibition activity of the compound of the present invention was investigated by in vitro endothelial morphogenesis assay using human originated cell line HUVEC.
24-well cell culture plate and matrigel matrix were purchased from BD biosciences Co. Other instruments used for the experiments were CO2 incubator for cell culture and inverted microscope (TE 300, Nikon, Japan) equipped with a digital camera for observation and confirmation of the result.
Particularly, starvation of HUVECs on a serum free medium was performed for overnight. Each well of 24-well cell culture plate was coated with 0.2 Ml of matrigel matrix, which was cultured in a 37° C. incubator for 1 hour. 0.2 Ml of cell culture solution with the cell density of 20000 was put in each well, which was further cultured in a CO2 incubator for 30 minutes. Then, a fresh medium, which was diluted with different concentrations of the compounds of Example 1-6, was given to each well. 1% serum was added to the wells, followed by further culture for 24 hours. Tube formation by HUVECs is observed. In this invention, inhibition of tube formation by the compound of the present invention was observed under inverted microscope, and the results were shown in FIG. 2 and FIG. 3. […]

zebrafish = assay: Angiogenesis inhibition in zebrafish embryos (subintestinal vessels); format: in vivo; conditions: FIG. 4
Experimental: Experimental instruments used for the invention were temperature-controlled incubator for the incubation of embryo and inverted microscope (TE 300, Nikon, Japan) equipped with a digital camera for observation and confirmation for the results.
Embryos of zebrafish were loaded on a 96-well plate by three embryos per well. The embryos were confirmed to be synchronized embryos which means one day has passed after development. The compounds of the present invention were dissolved in 0.1% DMSO to prepare different concentrations for each compound. Each compound was treated to 4 wells and inhibition of subintestinal vessels (SIVs) in 12 embryos was investigated. To prepare a control, 8 wells were treated with 0.1% DMSO (in embryo water: 0.2 g/l instant ocean salt) (Randall T. Peterson, et al, Proc. Natl. Aced. Sci. USA, 2000, 97: 12965).
For the observation of angiogenic vessels (SIVs), an rmmunological approach of Catherine E. Willet, et al. (Catherine E. Willet, et al., Angiogenesis, 1999, 3: 353), was used in the present invention. Particularly, three days after development, an embryo was fixed in 4% paraformaldehyde at room temperature for 2 hours. The embryo was washed twice with PBS, and dehydrated step by step with PBS, 25%, 50%, 75% and 100% methanol. Then, the embryo was rehydrated step by step with 100%, 75%, 50% and 25% methanol and PBS. […]

[2] = Acute oral toxicity test in rats; format: in vivo
Experimental: 6-week old SPF (specific pathogen-free) SD line rats were used in the acute toxicity test. Compound 1 of the present invention was suspended in 0.5% methylcellulose solution and orally administered once to 2 rats per group. Death, clinical symptoms, and weight change in rats were observed, hematological tests and biochemical tests of blood were performed, and any abnormal signs in the gastrointestinal organs of chest and abdomen were checked with eyes during autopsy.

[3] = Homo sapiens, MDA-MB-231, 10 uM

Compound: 5-(2,4-dimethoxy-5-ethylphenyl)-4-(4-bromophenyl)isoxazole [Example 2]
- Cell migration inhibition rate ([1]; 1 uM): 90.80%
- Cell migration inhibition rate ([1]; 10 uM): 94.80%

Compound: CCc1cc(-c2oncc2-c2ccc(OC)cc2)c(O)cc1OC [Example 1, 5-(5-ethyl-2-hydroxy-4-methoxyphenyl)-4-(4-methoxyphenyl)isoxazole]
- inhibition at 1 µM ([1]; Homo sapiens, MDA-MB-231, 1 uM): 92.3%
- inhibition at 10 µM [1, 3]: 94.5%
- inhibition at 0.05 µM ([1]; Homo sapiens, 50 nM, MDA-MB-231, FIG. 1): ≤ 50%
- inhibition of tube formation in vascular endothelial cells (HUVEC; 0.01 μM, FIG. 2): already detected
- inhibition of tube formation in vascular endothelial cells (HUVEC; 1 μM, FIG. 3): inhibited tube formation
- inhibition of angiogenesis in zebrafish (zebrafish; 0.5 μM): inhibited angiogenesis
- inhibition at 0.5 µM (zebrafish; Danio rerio, 500 nM): ≤ 50%
- LD50 ([2]; SD, rat, in vivo, rats, oral, read-out: estimated LD50): > 1500 mg/kg
- clinical symptoms, weight change, death ([2]; rat, in vivo, po): did not cause any specific clinical symptoms, weight change, or death
- hematological tests, biochemical tests of blood, autopsy ([2]; rat, in vivo, po): No change was observed
- level up to which no toxic change was caused ([2]; rats, single oral administration): ≤ 1000 mg/kg

Compound: CCc1cc(-c2oncc2-c2ccc(OC)cc2)c(OC)cc1OC [Example 3, 5-(2,4-dimethoxy-5-ethylphenyl)-4-(4-methoxyphenyl)isoxazole]
- inhibition at 1 µM ([1]; Homo sapiens, MDA-MB-231, 1 uM): 68.4%
- inhibition at 10 µM [1, 3]: 82.5%

Compound: CCc1cc(-c2oncc2-c2ccc(OC)cc2)c(OCc2ccccc2)cc1OC [Example 4, 5-(2-benzyloxy-5-ethyl-4-methoxyphenyl)-4-(4-methoxyphenyl)isoxazole]
- inhibition at 1 µM ([1]; Homo sapiens, MDA-MB-231, 1 uM): 54.6%
- inhibition at 10 µM [1, 3]: 70.1%

Compound: CCc1cc(-c2oncc2-c2ccc(O)cc2)c(O)cc1OC [Example 5, 5-(5-ethyl-2-hydroxy-4-methoxyphenyl)-4-(4-hydroxyphenyl)isoxazole]
- inhibition at 1 µM ([1]; Homo sapiens, MDA-MB-231, 1 uM): 43.5%
- inhibition at 10 µM [1, 3]: 43.3%

Compound: CCc1cc(-c2oncc2-c2ccc(O)cc2)c(O)cc1O [Example 6, 5-(2,4-dihydroxy-5-ethylphenyl)-4-(4-hydroxyphenyl)isoxazole]
- inhibition at 1 µM ([1]; Homo sapiens, MDA-MB-231, 1 uM): 79.5%
- inhibition at 10 µM [1, 3]: 79.4%
